Measured values reported in PMC5430920 (Scientific Reports, 2017).

Key:
[1] = target: T1, MtOPRT (Mycobacterium tuberculosis, UniProt P9WHK9)
T1 construct: gene pyrE

[2] = target: T1, MtOPRT; remark: listed apart in the source

T1 sequence (P9WHK9 whole entry): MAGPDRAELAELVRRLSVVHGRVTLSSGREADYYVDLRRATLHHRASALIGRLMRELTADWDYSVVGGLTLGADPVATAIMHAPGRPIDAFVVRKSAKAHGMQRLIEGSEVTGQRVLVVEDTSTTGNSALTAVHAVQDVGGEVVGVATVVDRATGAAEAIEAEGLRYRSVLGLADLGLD

SMILES | X-ray crystal structure, 2.25 Å [1] | X-ray crystal structure, 1.90 Å [2]
O=P(O)(O)OC[C@H]1O[C@H](OP(=O)(O)OP(=O)(O)O)[C@H](O)[C@@H]1O [PRPP, α-D-5-phosphoribosyl-1-pyrophosphate] | A PRPP molecule could be unambiguously identified in the active site in both monomers | 
O=P(O)(O)O [Pi, inorganic phosphate] |  | the inorganic phosphate occupies the same binding pocket of the 5-phosphate group of PRPP
